Common to all, as to assay: Test E pre-/postemergence greenhouse test, plant response rating 0-100
Type in all cases: in vivo

The subject of assay [1] is Brazilian crabgrass (Digitaria horizontalis). The settings on record: Digitaria horizontalis, post-emergence, Postemergence, scale 0 to 100, read-out: Plant response rating, Crabgrass, Brazil. The gist of the method:
(§1)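 Preemergence application to planted silt loam and postemergence application to 2–18 cm seedlings are run simultaneously. Evaluation is visual against controls after 14 to 21 days, scored from 0 (no effect) to 100 (complete control).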

In assay [2] the test system is Italian ryegrass (Lolium multiflorum). The settings on record: Lolium multiflorum, post-emergence, Postemergence, scale 0 to 100. The method, boiled down:
as §1

The subject of assay [3] is barnyardgrass (Echinochloa crus-galli). The settings on record: Echinochloa crus-galli, post-emergence, Postemergence, scale 0 to 100. The method, boiled down:
as §1

For a further assay, the system named is corn (Zea mays). The following applies: Zea mays, post-emergence, Postemergence, scale 0 to 100. The gist of the method: as §1
Assay [4] has as its system dayflower (Virginia (VA) dayflower, Commelina virginica). The following applies: Commelina virginica, post-emergence, Postemergence, scale 0 to 100. The gist of the method:
as §1

The subject of assay [5] is fall panicum (Panicum dichotomiflorum). The settings on record: Panicum dichotomiflorum, post-emergence, Postemergence, scale 0 to 100. The method, boiled down: as §1
Assay [6] deals with field bindweed (Convolvulus arvensis). The settings on record: Convolvulus arvensis, post-emergence, Postemergence, scale 0 to 100. The method, boiled down: as §1
For assay [7], the system named is hairy beggarticks (Bidens pilosa). The settings on record: Bidens pilosa, post-emergence, Postemergence, scale 0 to 100. The gist of the method: as §1
For assay [8], the system named is sandbur (southern sandbur, Cenchrus echinatus). The settings on record: Cenchrus echinatus, post-emergence, Postemergence, scale 0 to 100. The method, boiled down:
as §1

The test system of the next assay is soybean (Glycine max). The following applies: Glycine max, post-emergence, Postemergence, scale 0 to 100. The gist of the method: as §1
Assay [9] concerns waterhemp (common waterhemp, Amaranthus rudis). The settings on record: Amaranthus tuberculatus, post-emergence, Postemergence, scale 0 to 100. The gist of the method: as §1
Assay [10] has as its system wild poinsettia (Euphorbia heterophylla). The settings on record: Euphorbia heterophylla, post-emergence, Postemergence, scale 0 to 100, read-out: Plant response rating, Poinsettia, Wild. The gist of the method: as §1

As a reminder, the plant injury is the degree to which the test organism was suppressed or injured, in per cent. For the compound `COC(OC)(c1ccccc1)c1c[nH]nc1-c1cc(Cl)cc(Cl)c1` [Compound 13, 3-(3,5-dichlorophenyl)-4-(dimethoxyphenylmethyl)-1H-pyrazole], the pest or weed control at 125 g/ha is 0% in [1] (125 g ai/ha); 0% in [2] (125 g ai/ha); 15% in assay [3] (125 g ai/ha); 10% in assay [4] (125 g ai/ha); 0% in assay [5] (125 g ai/ha); 0% in [6] (125 g ai/ha). In addition, the pest or weed control at 125 g/ha in assay [7] (125 g ai/ha) turned out to be 60%; in [8] (125 g ai/ha), 0%; in assay [9] (125 g ai/ha), 90%; in assay [10] (125 g ai/ha), 0%. For the same compound, the pest or weed control at 500 g/ha came to 0% in assay [1] (500 g ai/ha); 0% in [2] (500 g ai/ha); 40% in [3] (500 g ai/ha); 10% in assay [4] (500 g ai/ha); 0% in [5] (500 g ai/ha); 10% in [6] (500 g ai/ha). In addition, the pest or weed control at 500 g/ha in assay [7] (500 g ai/ha) is 90%; in assay [8] (500 g ai/ha), 0%; in assay [9] (500 g ai/ha) it was 95%; in [10] (500 g ai/ha), 0%. This compound registered a Corn plant response rating (crop injury, 0 = no effect, 100 = complete kill) at 125 g/ha with corn (Zea mays) (125 g ai/ha) of 0%. Further, the Corn plant response rating (crop injury, 0 = no effect, 100 = complete kill) at 500 g/ha in the assay with corn (Zea mays) (500 g ai/ha) was 0%. Further, in the assay with soybean (Glycine max) (125 g ai/ha), the plant injury at 125 g/ha amounted to 0%. The compound further gave a plant injury at 500 g/ha in the assay on soybean (Glycine max) (500 g ai/ha) of 0%.

For the origin of these results see patent US10167262B2, “Herbicidal substituted 3-arylpyrazoles” (FMC CORPORATION, priority 2014, dated 2019).
